Results from the supplement of paper PMC10307832.

Assays:
Test in all cases: relative viability (nuclei count vs DMSO), 5 days (fraction); higher = more cells survive
[1] = compound: C=CCNC1=C2C[C@@H](C)C[C@H](OC)[C@H](O)[C@@H](C)/C=C(\C)[C@H](OC(N)=O)[C@@H](OC)/C=C\C=C(/C)C(=O)NC(=CC1=O)C2=O [17-AAG] + Cc1cc(Nc2cc(N3CCN(C)CC3)nc(Sc3ccc(NC(=O)C4CC4)cc3)n2)n[nH]1 [Tozasertib] (partner 0.1 µM)
Method in brief: (§1)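 Dosing by pin tool came one day after lung cancer cell lines were seeded in 1536-well plates, using either one drug or a fixed anchor-drug dose plus five library-drug doses (not always all listed) in √10 steps. After 5 days, nuclei were counted on 4× images. Relative viability is treated-well nuclei count divided by vehicle-well nuclei count, and values are medians of duplicate plates.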

[2] = compound: C=CCNC1=C2C[C@@H](C)C[C@H](OC)[C@H](O)[C@@H](C)/C=C(\C)[C@H](OC(N)=O)[C@@H](OC)/C=C\C=C(/C)C(=O)NC(=CC1=O)C2=O [17-AAG] + CC(C)C[C@H](NC(=O)[C@H](Cc1ccccc1)NC(=O)c1cnccn1)B(O)O [Bortezomib] (partner 0.002 µM)
Method in brief: as §1

[3] = compound: C=CCNC1=C2C[C@@H](C)C[C@H](OC)[C@H](O)[C@@H](C)/C=C(\C)[C@H](OC(N)=O)[C@@H](OC)/C=C\C=C(/C)C(=O)NC(=CC1=O)C2=O [17-AAG] + NC(=O)Nc1cc(-c2cccc(F)c2)sc1C(=O)N[C@H]1CCCNC1 [AZD7762] (partner 0.2 µM)
Method in brief: as §1

[4] = compound: C=CCNC1=C2C[C@@H](C)C[C@H](OC)[C@H](O)[C@@H](C)/C=C(\C)[C@H](OC(N)=O)[C@@H](OC)/C=C\C=C(/C)C(=O)NC(=CC1=O)C2=O [17-AAG] + Nc1ncn([C@H]2C[C@H](O)[C@@H](CO)O2)c(=O)n1 [Decitabine] (partner 2 µM)
Method in brief: as §1

| Cell Line | relative viability ([1]; first compound 0.00128 µM) | relative viability ([1]; first compound 0.004048 µM) | relative viability ([1]; first compound 0.0128 µM) | relative viability ([1]; first compound 0.04048 µM) | relative viability ([1]; first compound 0.128 µM) | relative viability ([2]; first compound 0.00128 µM) | relative viability ([2]; first compound 0.004048 µM) | relative viability ([2]; first compound 0.0128 µM) | relative viability ([2]; first compound 0.04048 µM) | relative viability ([2]; first compound 0.128 µM) | relative viability ([3]; first compound 0.00128 µM) | relative viability ([3]; first compound 0.004048 µM) | relative viability ([3]; first compound 0.0128 µM) | relative viability ([3]; first compound 0.04048 µM) | relative viability ([3]; first compound 0.128 µM) | relative viability ([4]; first compound 0.00128 µM) | relative viability ([4]; first compound 0.004048 µM) | relative viability ([4]; first compound 0.0128 µM) | relative viability ([4]; first compound 0.04048 µM) | relative viability ([4]; first compound 0.128 µM) |
| --- | --- | --- | --- | --- | --- | --- | --- | --- | --- | --- | --- | --- | --- | --- | --- | --- | --- | --- | --- | --- |
| NCI-H2228 | 0.301 | 0.151 | 0.105 | 0.131 | 0.128 | 0.88 | 0.304 | 0.137 | 0.167 | 0.135 |  |  |  |  |  |  |  |  |  |  |
| NCI-H2170 | 0.739 | 0.77 | 0.65 | 0.327 | 0.173 |  |  |  |  |  | 0.832 | 0.734 | 0.305 | 0.126 | 0.128 | 0.375 | 0.47 | 0.291 | 0.336 | 0.152 |
| NCI-H522 | 0.621 | 0.532 | 0.619 | 0.558 | 0.502 |  |  |  |  |  | 0.845 | 0.857 | 0.569 | 0.51 | 0.393 | 0.668 | 0.769 | 0.686 | 0.584 | 0.431 |
| A549 |  |  |  |  |  |  |  |  |  |  |  |  |  |  |  | 0.123 | 0.271 | 0.128 | 0.0399 | 0.0274 |
| SK-LU-1 | 0.426 | 0.243 | 0.128 | 0.152 | 0.139 | 0.976 | 0.903 | 0.311 | 0.238 | 0.197 |  |  |  |  |  | 0.582 | 0.599 | 0.402 | 0.24 | 0.223 |
| NCI-H358 | 0.115 | 0.0905 | 0.0894 | 0.0684 | 0.0644 |  |  |  |  |  | 0.522 | 0.381 | 0.132 | 0.142 | 0.139 | 0.198 | 0.141 | 0.0682 | 0.0758 | 0.062 |
| CAL-12T | 0.328 | 0.24 | 0.375 | 0.314 | 0.153 | 1.11 | 0.899 | 0.904 | 0.726 | 0.469 | 0.655 | 0.553 | 0.608 | 0.393 | 0.233 |  |  |  |  |  |
| COR-L23 | 0.2 | 0.25 | 0.225 | 0.158 | 0.0795 | 1.12 | 0.948 | 0.946 | 0.408 | 0.0841 |  |  |  |  |  | 0.328 | 0.52 | 0.432 | 0.351 | 0.138 |
| IA-LM |  |  |  |  |  | 0.886 | 0.604 | 0.766 | 0.326 | 0.0846 |  |  |  |  |  |  |  |  |  |  |
| NCI-H661 | 0.372 | 0.326 | 0.358 | 0.344 | 0.289 | 0.857 | 0.912 | 0.781 | 0.637 | 0.393 |  |  |  |  |  | 0.496 | 0.552 | 0.473 | 0.341 | 0.257 |
| NCI-H1650 | 0.458 | 0.317 | 0.215 | 0.175 | 0.206 | 0.217 | 0.219 | 0.181 | 0.224 | 0.197 |  |  |  |  |  | 0.384 | 0.33 | 0.185 | 0.165 | 0.134 |
| Calu-6 |  |  |  |  |  | 1.06 | 0.92 | 0.896 | 0.317 | 0.183 |  |  |  |  |  |  |  |  |  |  |
